{"source": "paper PMC5748751", "about": "“Study of Structure and Permeability Relationship of Flavonoids in Caco-2 Cells” (Nutrients, 2017)", "key": {"[1]": {"assay": "Cell viability (MTT) assay of flavonoids in Caco-2 cells", "assay_type": "cell-based", "conditions": "human", "experimental": "The cytotoxicity of flavonoids and colchicine was evaluated by MTT assay. The cells were grown in 96-well plates at a density of 1 × 10^4 cells/well. After incubation with 40 μM flavonoid for 24 h, the cells were further incubated with an MTT solution (0.5 mg/mL) for 4 h at 37 °C. Finally, after removal of the supernatant, 150 μL dimethyl sulphoxide was added to each well to dissolve crystallized MTT. Absorbance was read at 570 nm with a multiskan spectrum microplate reader (Thermo Labsystems, Waltham, MA, USA). The percentage cell viability relative to that of the control cells was used as the cytotoxicity measure."}, "[2]": {"assay": "Permeability (bidirectional transport) of flavonoids in Caco-2 cell monolayers", "assay_type": "in vitro ADME", "conditions": "human", "experimental": "Caco-2 cells were cultured in MEM supplemented with 10% FBS, 1% NEAA, penicillin (100 U/mL) and streptomycin (100 μg/mL) in an atmosphere of 5% CO2 and 90% relative humidity at 37 °C. All cells used in this study were between passages 35 and 45 [16].\nCaco-2 cells were seeded at a density of about 8 × 10^4 cells/cm^2 on a 12 wells Millicell hanging insert and left to grow for 19–21 days to reach confluence. Culture medium was replaced every other day for 14 days and daily thereafter. The integrity and transport ability of the Caco-2 cells monolayer were examined by measuring the trans-epithelial electrical resistance (TEER) with a Millicell voltammeter (Millicell ERS-2, Merck Millipore, Billerica, MA, USA) and running standard assays using Lucifer yellow CH as paracellular flux marker. […] Differentiation of Caco-2 cells was checked after 4 and 12 days by determining the activity of alkaline phosphatase with an assay kit (Nanjing Jiancheng Bioengineering Institute, Nanjing, China) and after 21 days transmission electron microscopy was performed on Caco-2 monolayer to evaluate differentiation.\nThe Caco-2 cell monolayer was washed with D-Hank’s buffer (pH 7.4). Then, the flavonoid (40 μM) was added to either the apical (AP, 0.4 mL) or basolateral (BL, 1.95 mL) side, while the receiving chamber contained the corresponding volume of D-Hank’s buffer and incubated for 1 h at 37 °C. Solutions from both AP and BL sides of Caco-2 cell monolayer were collected and immediately frozen, lyophilized and preserved at −80 °C for high performance liquid chromatography (HPLC) analysis. Papp was calculated from Equation (1), where ΔQ/Δt is the rate of the flavonoid on the accepting chamber (μM/s), A is the surface area of the hanging insert (cm^2) and C0 is the initial concentration of tested flavonoid in donating chamber (μM/mL).(1) Papp=ΔQ/Δt/AC0"}, "Caco-2 cell monolayer [3]": {"tested_on": "Caco-2 cell monolayer", "conditions": "human, Caco-2, 1 h, 40 μM, pH 7.4", "protocol": "(§1) After the collection of samples from both AP and BL sides, the hanging insert was rinsed twice with ice-cold D-Hank’s buffer to stop further transport, and lysed with 0.1% Triton X-100 in D-Hank’s buffer then placed in an ultrasonic bath for 15 min. Cell lysates were collected and centrifuged at 7000× g for 10 min. Supernatants were analyzed by BCA kit (Dingguochangsheng Biotechnology, Beijing, China) for protein content. After protein content assay, supernatants were immediately frozen, lyophilized and preserved at −80 °C. The flavonoid concentration in lysis solution was determined by HPLC and normalized with cellular protein content.\n(§2) To determine both the permeability and CA of flavonoids in Caco-2 cells, the lyophilized samples were dissolved in running 120 to 200 μL methanol, and centrifuged at 7000× g for 5 min. Aliquot of 20 μL of the supernatant solution was used for assay using Waters e2695 HPLC system (Milford, MA, USA) fitted with an Amethyst C18-H column (250 mm × 4.6 mm i.d., 5 μm; Sepax, Newark, DE, USA). The mobile phase consisted of A (0.01 M phosphoric acid (H3PO4))/B (acetonitrile) with 1.0 mL/min flow rate. […] Peak area measurement was used to obtain standard calibration curves to determine concentration of each flavonoid."}, "Caco-2 cell monolayer [4]": {"tested_on": "Caco-2 cell monolayer", "assay": "Cellular accumulation (CA) of flavonoids in Caco-2 cell monolayer", "conditions": "40 μM, 1 h, normalized to cellular protein, mean ± SD, n = 3", "protocol": "as §1, §2"}}, "note": "Marks after values point to notes of the source that are not given here.", "data": [{"compound": "O=C1C[C@@H](c2ccc(O)cc2)Oc2cc(O)ccc21", "note": "[Compound 21, Liquiritigenin]", "values": [{"measurement": "viability at 24 h, 40 μM", "setting": "[1]", "result": "101 ± 4.27", "unit": "%"}, {"measurement": "Papp A→B at 60 min, 40 μM", "setting": "[2]; Caco-2, apical to basolateral, incubation 60 min, 37 °C, D-Hank's pH 7.4, mean ± SD, n = 3–6", "result": "31 ± 0.8", "unit": "×10⁻⁶ cm/s"}, {"measurement": "Papp B→A at 60 min, 40 μM", "setting": "[2]; Caco-2, basolateral to apical, incubation 60 min, 37 °C, D-Hank's pH 7.4, mean ± SD, n = 3–6", "result": "37 ± 1.97", "unit": "×10⁻⁶ cm/s"}, {"measurement": "Papp at 1 h, 40 μM", "setting": "[2]; Caco-2, pH 7.4, as stated in text, direction not specified (bilateral), Caco-2 monolayer", "result": "> 30", "unit": "×10⁻⁶ cm/s"}, {"measurement": "CA", "setting": "Caco-2 cell monolayer [3]", "result": "< 5", "unit": "µmol/g"}, {"measurement": "CA A to B", "setting": "Caco-2 cell monolayer [4]; accumulated in cell monolayer after transport apical to basolateral", "result": "0.635 ± 0.146", "unit": "µmol/g"}, {"measurement": "CA B to A", "setting": "Caco-2 cell monolayer [4]; accumulated in cell monolayer after transport basolateral to apical", "result": "1.234 ± 0.249 ^a μmol/g"}]}]}
